Marks after values point to notes of the source that are not given here.
Tests used:
Format in all cases: in vivo
[1] = tested on: Puccinia recondita f. sp. tritici; assay: Test F: preventive spray on wheat seedlings, wheat leaf rust, visual disease rating; details: for pest or weed control at 200 ppm / Test F rating (disease control): 200 ppm test suspension, Puccinia recondita f. sp. tritici inoculated the day after spraying
Outline: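 Compounds in acetone/water (50/50) with 250 ppm Trem 014, sprayed to run-off on seedlings at 200 ppm (800 g/ha) or 40 ppm where marked. Inoculated next day, 24 h saturated atmosphere at 20° C then 6 days at 20° C; visual rating, 100 = full control vs controls, triplicate averaged.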

Botrytis cinerea = assay: Test A: preventive spray on tomato seedlings, tomato Botrytis, visual disease rating; details: for pest or weed control at 200 ppm / Test A rating (disease control): 200 ppm test suspension, Botrytis cinerea inoculated the day after spraying
Outline: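 Tomato seedlings were sprayed to run-off with test suspension, 200 ppm (≈800 g/ha) unless marked 40 ppm, in acetone/water with surfactant. They were inoculated with Botrytis cinerea spores next day, held 48 h saturated at 20 °C, then 3 days at 24 °C. Disease control was rated visually, 0–100 relative to controls, in triplicate.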

[2] = tested on: Blumeria graminis f. sp. tritici; assay: Test G: preventive spray on wheat seedlings, wheat powdery mildew, visual disease rating;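 for all read-outs here: rated 8 days after spore dust inoculation at 20 °C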; details: for pest or weed control at 200 ppm / Test G rating (disease control): 200 ppm test suspension, Blumeria graminis f. sp. tritici inoculated the day after spraying
Outline: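 Wheat seedlings sprayed to run-off with 200 ppm suspension (about 800 g/ha; asterisked values 40 ppm) in acetone/water with 250 ppm Trem 014. Inoculated next day with B. graminis spore dust and held at 20 °C for 8 days. Visual rating, 0–100 % disease control versus controls; triplicate, averaged.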

[3] = tested on: Puccinia recondita f. sp. tritici; assay: Test E: spray after inoculation of wheat seedlings, wheat leaf rust, visual disease rating; details: sprayed after inoculation with Puccinia recondita f. sp. tritici
Protocol: General protocol for preparing test suspensions for Tests A-G: the test compounds were first dissolved in acetone in an amount equal to 3% of the final volume and then suspended at the desired concentration (in ppm) in acetone and purified water (50/50 mix by volume) containing 250 ppm of the surfactant Trem® 014 (polyhydric alcohol esters). The resulting test suspensions were then used in Tests A-G. Each test was conducted in triplicate, and the results were averaged. Spraying a 200 ppm test suspension to the point of run-off on the test plants was the equivalent of a rate of 800 g/ha. Unless otherwise indicated, the rating values indicate a 200 ppm test suspension was used. (An asterisk “*” next to the rating value indicates a 40 ppm test suspension was used.) Wheat seedlings were inoculated with a spore suspension of Puccinia recondita f. sp. tritici (the causal agent of wheat leaf rust) and incubated in a saturated atmosphere at 20° C. for 24 h, and then moved to a growth chamber at 20° C. for 2 days. At the end of this time the, the test suspension was sprayed to the point of run-off on the wheat seedlings, and then the seedlings were moved back to the growth chamber at 20° C. for 4 days. Upon removal, visual disease ratings were made. Results for Tests A-G are given in Table A. In the Table, a rating of 100 indicates 100% disease control and a rating of 0 indicates no disease control (relative to the controls). A hyphen (-) indicates no test results.

Septoria tritici = assay: Test D: preventive spray on wheat seedlings, wheat leaf blotch, visual disease rating; details: for pest or weed control at 200 ppm / Test D rating (disease control): 200 ppm test suspension, Septoria tritici inoculated the day after spraying
Outline: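 Wheat seedlings sprayed to run-off with 200 ppm suspension (≈800 g/ha; asterisked ratings 40 ppm), then inoculated with S. tritici spores next day. Held 48 h saturated at 24 °C, then 19 days at 20 °C. Visual rating 0–100% disease control versus controls, triplicate mean.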

Compound | pest or weed control at 200 ppm ([1]; 168 h) [%] | pest or weed control at 200 ppm (Botrytis cinerea; 120 h) [%] | pest or weed control at 200 ppm ([2]; 192 h) [%] | Test E rating (disease control) ([3]; 200 ppm test suspension) [%] | pest or weed control at 200 ppm (Septoria tritici; Zymoseptoria tritici, 504 h) [%] | Test F rating (disease control) [1] [%] | Test A rating (disease control) (Botrytis cinerea) [%] | Test G rating (disease control) [2] [%] | Test D rating (disease control) (Septoria tritici) [%] | pest or weed control at 40 ppm ([1]; 168 h, 40 ppm test suspension (asterisk), Puccinia recondita f. sp. tritici, preventive) [%] | pest or weed control at 40 ppm (Botrytis cinerea; 120 h, 40 ppm test suspension (asterisk), Botrytis cinerea) [%] | pest or weed control at 40 ppm ([2]; 192 h, 40 ppm test suspension (asterisk), Blumeria graminis f. sp. tritici) [%] | Test E rating (disease control) ([3]; 40 ppm test suspension (asterisk)) | pest or weed control at 40 ppm (Septoria tritici; Zymoseptoria tritici, 504 h, 40 ppm test suspension (asterisk), Septoria tritici) [%]
Cc1nn(C)c(C(O)C(C)C)c1-c1ccc(F)cc1Cl (stereo not drawn) [Compound 2, 4-(2-chloro-4-fluorophenyl)-1,3-dimethyl-α-(1-methylethyl)-1H-pyrazole-5-methanol] | 99 | 100 | 97 | 26 | 100 |  |  |  |  |  |  |  |  | 
CCCNc1c(-c2ccc(Cl)cc2Cl)c(C)nn1C [Compound 3] |  |  |  | 0 |  | 0 | 65 | 0 | 92 |  |  |  |  | 
Cc1nn(C)c(NCC(C)C)c1-c1ccc(Cl)cc1Cl [Compound 4, 4-(2,4-dichlorophenyl)-1,3-dimethyl-N-(2-methylpropyl)-1H-pyrazol-5-amine] | 0 | 99 | 93 | 26 | 99 |  |  |  |  |  |  |  |  | 
CCCCNc1c(-c2ccc(Cl)cc2Cl)c(C)nn1C [Compound 5, N-butyl-4-(2,4-dichlorophenyl)-1,3-dimethyl-1H-pyrazol-5-amine] | 27 | 98 | 58 | 79 | 88 |  |  |  |  |  |  |  |  | 
Cc1nn(C)c(NC2CCCCC2)c1-c1ccc(F)cc1F [Compound 6, N-cyclohexyl-4-(2,4-difluorophenyl)-1,3-dimethyl-1H-pyrazol-5-amine] | 17 | 99 | 91 | 68 | 100 |  |  |  |  |  |  |  |  | 
CCC(C)C(O)c1c(-c2ccc(F)cc2Cl)c(C)nn1C (stereo not drawn) [Compound 8, 4-(2-chloro-4-fluorophenyl)-1,3-dimethyl-α-(1-methylpropyl)-1H-pyrazole-5-methanol] | 100 | 95 | 99 | 0 | 100 |  |  |  |  |  |  |  |  | 
Cc1nn(C)c(C(O)C(C)(C)CCC#N)c1-c1c(F)cccc1F (centres unmarked) [Compound 9] |  |  |  | 0 |  | 9 | 26 | 53 | 98 |  |  |  |  | 
Cc1nn(C)c(C(O)C2=CCCCC2)c1-c1c(F)cccc1F (centres unmarked) [Compound 10] |  |  |  | 0 |  | 86 | 99 | 85 | 92 |  |  |  |  | 
Cc1nn(C)c(C(O)CC(C)C)c1-c1c(F)cccc1F (centres unmarked) [Compound 11] |  |  |  | 0 |  | 89 | 67 | 99 | 98 |  |  |  |  | 
C=CCC(C)(C)C(O)c1c(-c2c(F)cccc2F)c(C)nn1C (centres unmarked) [Compound 12] |  |  |  | 0 |  | 41 | 0 | 99 | 83 |  |  |  |  | 
CCCCC(CC)C(O)c1c(-c2c(F)cccc2F)c(C)nn1C (centres unmarked) [Compound 13] |  |  |  | 0 |  | 28 | 0 | 96 | 55 |  |  |  |  | 
CCCC(O)c1c(-c2c(F)cccc2F)c(C)nn1C (centres unmarked) [Compound 14] |  |  |  | 0 |  | 74 | 33 | 99 | 62 |  |  |  |  | 
CCC(C)C(O)c1c(-c2c(F)cccc2F)c(C)nn1C (centres unmarked) [Compound 15] |  |  |  | 9 |  | 74 | 67 | 99 | 100 |  |  |  |  | 
CCC(C)C(O)c1c(-c2c(F)cccc2Cl)c(C)nn1C (stereo not drawn) [Compound 19, 4-(2-chloro-6-fluorophenyl)-1,3-dimethyl-α-(1-methylpropyl)-1H-pyrazole-5-methanol] |  |  |  |  |  |  |  |  |  | 19 | 77 | 95 | 0* % | 89
Cc1nn(C)c(C(O)CC(C)C)c1-c1c(F)cccc1Cl (centres unmarked) [Compound 20] |  |  |  | 0 |  | 86 | 92 | 99 | 100 |  |  |  |  | 
CCCC(O)c1c(-c2c(F)cccc2Cl)c(C)nn1C (centres unmarked) [Compound 21] |  |  |  | 0 |  | 74 | 75 | 99 | 97 |  |  |  |  | 
